Source: patent US20030129629A1, “Methods and compositions for the identification, assessment, prevention, and therapy of human cancers” (Millennium Pharmaceuticals, Inc., priority 2000, published 2003)
“And” between values parts separate entries of the source, which are not always exact repeats. Equal entries are not always repeated. Where two headings read alike, the source gives them in different places.

System: 60 cancer cell lines (NCI 60 cancer cell line series)
Assay: NCI-DTP in vitro cancer screen, sulforhodamine B (SRB) growth inhibition, 48 hour exposure
Format: cell-based, human
Summary of the method: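 Potency is given as mean −log{GI50} from dose–response curves, manually binned into Low, Medium or High sensitivity. Sixty NCI-DTP tumour lines were treated 48 h with a duplicate, five-dose, ten-fold dilution series, and growth read by SRB staining of cell mass.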

With `CS(=O)(=O)OCCCCOS(C)(=O)=O` [Busulfan] the “classification of cell line as Low(1), Medium(2), High(3) sensitivity to compound” value (“classification of cell line” below) (Breast BT-549 CL5013) was 1, the “classification of cell line” value (Breast HS-578T CL5006) was 1 and the “classification of cell line” value (Breast MCF7(I) CL5001) was 2. For the same compound, the “classification of cell line” value (Breast MCF7/ADRr CL5002) was 2, the “classification of cell line” value (Breast MDA-MB-231 CL5005) was 1 and the “classification of cell line” value (Breast MDA-MB-435 CL5011) was 1. For the same compound, the “classification of cell line” value (Breast MDA-N CL5012) was 2, the “classification of cell line” value (Breast T-47D CL5014) was 1 and the “classification of cell line” value (CNS SF-268 CL12014) was 2. The “classification of cell line” value (CNS SF-295 CL12015) was 2, the “classification of cell line” value (CNS SF-539 CL12016) was 1 and the “classification of cell line” value (CNS SNB-19 CL12002) was 2. The “classification of cell line” value (CNS SNB-75(I) CL12005) was 3, the “classification of cell line” value (CNS U251(I) CL12009) was 1 and the “classification of cell line” value (Colon COLO-250 CL4010) was 2. The “classification of cell line” value (Colon HCC-2998 CL4002) was 2, the “classification of cell line” value (Colon HCT-15 CL4015) was 2 and the “classification of cell line” value (Colon HCT-116 CL4003) was 1. For the same compound, the “classification of cell line” value (Colon HT29(I) CL4001) was 1, the “classification of cell line” value (Colon KM12 CL4017) was 1 and the “classification of cell line” value (Colon SW-620 CL4009) was 2. The “classification of cell line” value (Leukemia CCRF-CEM(I) CL7003) was 3, the “classification of cell line” value (Leukemia HL-60(I) CL7008) was 3 and the “classification of cell line” value (Leukemia K562(I) CL7005) was 2. For the same compound, the “classification of cell line” value (Leukemia MOLT-4 CL7006) was 3, the “classification of cell line” value (Leukemia RPMI-8226(I) CL7010) was 1 and the “classification of cell line” value (Leukemia SR CL7019) was 3. The “classification of cell line” value (Melanoma LOX IMVI CL10001) was 2, the “classification of cell line” value (Melanoma M14 CL10014) was 1 and the “classification of cell line” value (Melanoma MALME-3M CL10002) was 1. For the same compound, the “classification of cell line” value (Melanoma SK-MEL-2 CL10005) was 1, the “classification of cell line” value (Melanoma SK-MEL-5 CL10007) was 2 and the “classification of cell line” value (Melanoma SK-MEL-28 CL10008) was 2. For the same compound, the “classification of cell line” value (Melanoma UACC-62 CL10020) was 2, the “classification of cell line” value (Melanoma UACC-257 CL10021) was 2 and the “classification of cell line” value (NSCLC A549/ATCC CL1004) was 2. The “classification of cell line” value (NSCLC EKVX CL1008) was 2, the “classification of cell line” value (NSCLC HOP-62 CL1026) was 2 and the “classification of cell line” value (NSCLC HOP-92 CL1029) was 2. The “sensitivity classification Low(1)/Medium(2)/High(3)” value (NSCLC NCI-H23(I) CL1001) was 2, the “classification of cell line” value (NSCLC NCI-H226 CL1013) was 2 and the “sensitivity classification Low(1)/Medium(2)/High(3)” value (NSCLC NCI-H332M CL1017) was 1. The “sensitivity classification Low(1)/Medium(2)/High(3)” value (NSCLC NCI-H460 CL1021) was 3, the “sensitivity classification Low(1)/Medium(2)/High(3)” value (NSCLC NCI-H522 CL1003) was 1 and the “sensitivity classification Low(1)/Medium(2)/High(3)” value (Ovarian IGROV1 CL6010) was 1. The “sensitivity classification Low(1)/Medium(2)/High(3)” value (Ovarian OVCAR-3 CL6001) was 2, the “sensitivity classification Low(1)/Medium(2)/High(3)” value (Ovarian OVCAR-4 CL6002) was 2 and the “sensitivity classification Low(1)/Medium(2)/High(3)” value (Ovarian OVCAR-5 CL6003) was 1. For the same compound, the “sensitivity classification Low(1)/Medium(2)/High(3)” value (Ovarian OVCAR-8 CL6005) was 1, the “sensitivity classification Low(1)/Medium(2)/High(3)” value (Ovarian SK-OV-3 CL6011) was 1 and the “sensitivity classification Low(1)/Medium(2)/High(3)” value (Prostate DU-145 CL11003) was 2. The “sensitivity classification Low(1)/Medium(2)/High(3)” value (Prostate PC-3(I) CL11001) was 1, the “sensitivity classification Low(1)/Medium(2)/High(3)” value (Renal 786-0 CL9018) was 2 and the “sensitivity classification Low(1)/Medium(2)/High(3)” value (Renal A498 CL9013) was 1. The “sensitivity classification Low(1)/Medium(2)/High(3)” value (Renal ACHN CL9023) was 2, the “sensitivity classification Low(1)/Medium(2)/High(3)” value (Renal CAKI-1 CL9015) was 3 and the “sensitivity classification Low(1)/Medium(2)/High(3)” value (Renal RXF-393 CL9016) was 3. For the same compound, the “sensitivity classification Low(1)/Medium(2)/High(3)” value (Renal SN12C CL9008) was 2, the “sensitivity classification Low(1)/Medium(2)/High(3)” value (Renal TK10 CL9024) was 1 and the “sensitivity classification Low(1)/Medium(2)/High(3)” value (Renal UO-31 CL9004) was 1.

For `N[C@@H](Cc1ccc(N(CCCl)CCCl)cc1)C(=O)O` [Melphalan], the “classification of cell line” value was 2, the “classification of cell line” value (Breast BT-549 CL5013) was 2 and the “classification of cell line” value (Breast HS-578T CL5006) was 2. The “classification of cell line” value (Breast MCF7(I) CL5001) was 3, the “classification of cell line” value (Breast MCF7/ADRr CL5002) was 2 and the “classification of cell line” value (Breast MDA-MB-231 CL5005) was 2. The “classification of cell line” value (Breast MDA-MB-435 CL5011) was 2, the “classification of cell line” value (Breast MDA-N CL5012) was 2 and the “classification of cell line” value (Breast T-47D CL5014) was 2. The “classification of cell line” value (Colon COLO-250 CL4010) was 2, the “classification of cell line” value (Colon HCC-2998 CL4002) was 2 and the “classification of cell line” value (Colon HCT-15 CL4015) was 2. The “classification of cell line” value (Colon HCT-116 CL4003) was 2, the “classification of cell line” value (Colon HT29(I) CL4001) was 1 and the “classification of cell line” value (Colon KM12 CL4017) was 1. For the same compound, the “classification of cell line” value (Colon SW-620 CL4009) was 2, the “classification of cell line” value (Leukemia CCRF-CEM(I) CL7003) was 3 and the “classification of cell line” value (Leukemia HL-60(I) CL7008) was 3. For the same compound, the “classification of cell line” value (Leukemia K562(I) CL7005) was 2, the “classification of cell line” value (Leukemia MOLT-4 CL7006) was 3 and the “classification of cell line” value (Leukemia RPMI-8226(I) CL7010) was 2. For the same compound, the “classification of cell line” value (Leukemia SR CL7019) was 3, the “classification of cell line” value (Melanoma LOX IMVI CL10001) was 2 and the “classification of cell line” value (Melanoma M14 CL10014) was 2. For the same compound, the “classification of cell line” value (Melanoma MALME-3M CL10002) was 2, the “classification of cell line” value (Melanoma SK-MEL-2 CL10005) was 2 and the “classification of cell line” value (Melanoma SK-MEL-5 CL10007) was 2. For the same compound, the “classification of cell line” value (Melanoma SK-MEL-28 CL10008) was 2, the “classification of cell line” value (Melanoma UACC-62 CL10020) was 3 and the “classification of cell line” value (Melanoma UACC-257 CL10021) was 2. The “classification of cell line” value (NSCLC A549/ATCC CL1004) was 2, the “classification of cell line” value (NSCLC EKVX CL1008) was 2 and the “classification of cell line” value (NSCLC HOP-62 CL1026) was 2. The “classification of cell line” value (NSCLC HOP-92 CL1029) was 2, the “sensitivity classification Low(1)/Medium(2)/High(3)” value (NSCLC NCI-H23(I) CL1001) was 2 and the “classification of cell line” value (NSCLC NCI-H226 CL1013) was 2. The “sensitivity classification Low(1)/Medium(2)/High(3)” value (NSCLC NCI-H332M CL1017) was 1, the “sensitivity classification Low(1)/Medium(2)/High(3)” value (NSCLC NCI-H460 CL1021) was 3 and the “sensitivity classification Low(1)/Medium(2)/High(3)” value (NSCLC NCI-H522 CL1003) was 2. For the same compound, the “sensitivity classification Low(1)/Medium(2)/High(3)” value (Ovarian IGROV1 CL6010) was 2, the “sensitivity classification Low(1)/Medium(2)/High(3)” value (Ovarian OVCAR-3 CL6001) was 2 and the “sensitivity classification Low(1)/Medium(2)/High(3)” value (Ovarian OVCAR-4 CL6002) was 2. The “sensitivity classification Low(1)/Medium(2)/High(3)” value (Ovarian OVCAR-5 CL6003) was 2, the “sensitivity classification Low(1)/Medium(2)/High(3)” value (Ovarian OVCAR-8 CL6005) was 2 and the “sensitivity classification Low(1)/Medium(2)/High(3)” value (Ovarian SK-OV-3 CL6011) was 2. The “sensitivity classification Low(1)/Medium(2)/High(3)” value (Prostate DU-145 CL11003) was 2, the “sensitivity classification Low(1)/Medium(2)/High(3)” value (Prostate PC-3(I) CL11001) was 2 and the “sensitivity classification Low(1)/Medium(2)/High(3)” value (Renal 786-0 CL9018) was 2. The “sensitivity classification Low(1)/Medium(2)/High(3)” value (Renal A498 CL9013) was 1, the “sensitivity classification Low(1)/Medium(2)/High(3)” value (Renal ACHN CL9023) was 3 and the “sensitivity classification Low(1)/Medium(2)/High(3)” value (Renal CAKI-1 CL9015) was 3. For the same compound, the “sensitivity classification Low(1)/Medium(2)/High(3)” value (Renal RXF-393 CL9016) was 2, the “sensitivity classification Low(1)/Medium(2)/High(3)” value (Renal SN12C CL9008) was 2 and the “sensitivity classification Low(1)/Medium(2)/High(3)” value (Renal TK10 CL9024) was 1. For the same compound, the “sensitivity classification Low(1)/Medium(2)/High(3)” value (Renal UO-31 CL9004) was 2.

With `Nc1ccn([C@@H]2O[C@H](CO)[C@@H](O)[C@@H]2O)c(=O)n1` [AraC] the “classification of cell line” value was 3 and 2 and 1 and the “sensitivity classification Low(1)/Medium(2)/High(3)” value was 3 and 2 and 1.
